Test results reported in US20220135667A1, “THERAPEUTIC COMBINATIONS AND COMPOSITIONS FOR THE TREATMENT OF INFLAMMATORY BOWEL DISEASE (II)” (RIJSUNIVERSITEIT GRONINGEN, priority 2019, published 2022).

Tested on: CD patients
Assay: prospective clinical intervention study of riboflavin in CD patients
Format: in vivo, human
Details: 100 mg riboflavin daily for 3 weeks
Method: In a prospective clinical intervention study, 70 CD patients were included and divided into two groups with (active) and without (quiescent) evidence of mucosal inflammation (defined by fecal calprotectin (FC) cut-off value: 200 μg/g). Patients received 100 mg riboflavin daily for 3 weeks. Clinical disease activity (Harvey-Bradshaw Index: HBI), inflammatory biomarkers (including interleukin 2) as well as fecal microbial composition (including pathogenic Enterobacteriaceae including E. coli) were analyzed before and after riboflavin intervention.

Compound: Cc1cc2nc3c(=O)[nH]c(=O)nc-3n(C[C@H](O)[C@H](O)[C@H](O)CO)c2cc1C [riboflavin]
- fecal calprotectin (patients with TNF-alpha inhibitor treatment (FIG. 4)): further reduction
- proinflammatory cytokine IL2 (patients with TNF-alpha inhibitor treatment (FIG. 5)): further reduction
- Enterobacteriaceae including E. coli (fecal microbial composition) (patients with TNF-alpha inhibitor treatment (FIG. 6)): further reduction
- clinical disease activity (Harvey-Bradshaw Index: HBI) (patients with TNF-alpha inhibitor treatment, both active and quiescent disease, before vs after (FIG. 1-3)): further reduced
- clinical disease activity (Harvey-Bradshaw Index: HBI) (patients with mesalazine treatment (FIG. 1-3)): not the case (not as pronounced as)
